From the supplement of paper PMC10307832

How the values were obtained:
Test in all cases: relative viability (nuclei count vs DMSO), 5 days (fraction); higher = more cells survive
[1] = compound: CC1=C(C(=O)N2C=CSC2=N1)CCN3CCC(=C(C4=CC=CC=C4)C5=CC=C(C=C5)F)CC3 + COc1cccc2cc(-c3nc([C@H]4CC[C@H](C(=O)O)CC4)n4ncnc(N)c34)[nH]c12 [OSI-027] (partner 0.5 µM)
In short: (§1)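 Relative viability divides the nuclei count in treated wells by that in vehicle wells. Lung cancer cell lines were seeded in 1536-well plates, dosed by pin tool the next day, and fixed and stained after 5 days in one step with final 0.05% Triton X-100, 1% formaldehyde and 1 ug/ml Hoechst. Dosing was a single drug or a fixed anchor-drug dose plus five library-drug doses (not always all listed) in √10 steps, and values are medians of duplicate plates imaged at 4×.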

[2] = compound: CC1=C(C(=O)N2C=CSC2=N1)CCN3CCC(=C(C4=CC=CC=C4)C5=CC=C(C=C5)F)CC3 + CS(=O)(=O)CCNCc1ccc(-c2ccc3ncnc(Nc4ccc(OCc5cccc(F)c5)c(Cl)c4)c3c2)o1 [Lapatinib] (partner 2 µM)
In short: as §1

[3] = compound: CC1=C(C(=O)N2C=CSC2=N1)CCN3CCC(=C(C4=CC=CC=C4)C5=CC=C(C=C5)F)CC3 + C[C@]1(O)C[C@@H](c2nc(-c3ccc4ccc(-c5ccccc5)nc4c3)c3c(N)nccn32)C1 [Linsitinib] (partner 1 µM)
In short: as §1

[4] = compound: CC1=C(C(=O)N2C=CSC2=N1)CCN3CCC(=C(C4=CC=CC=C4)C5=CC=C(C=C5)F)CC3 + Cc1nc(NC(=O)N2CCC[C@H]2C(N)=O)sc1-c1ccnc(C(C)(C)C(F)(F)F)c1 [Alpelisib] (partner 2 µM)
In short: as §1

Cell Line NCI-H2009 has a relative viability ([1]; first compound 0.08 µM) of 0.638, a relative viability ([1]; first compound 0.253 µM) of 0.619 and a relative viability ([1]; first compound 0.8 µM) of 0.616. The relative viability ([1]; first compound 2.53 µM) was 0.637, the relative viability ([1]; first compound 8 µM) was 0.527 and the relative viability ([2]; first compound 0.08 µM) was 1.01. It also gave a relative viability ([2]; first compound 0.253 µM) of 0.903, a relative viability ([2]; first compound 0.8 µM) of 0.785 and a relative viability ([2]; first compound 2.53 µM) of 0.946. For the same cell line, the relative viability ([2]; first compound 8 µM) was 0.786, the relative viability ([3]; first compound 0.08 µM) was 1.29 and the relative viability ([3]; first compound 0.253 µM) was 1.29. For the same cell line, the relative viability ([3]; first compound 0.8 µM) was 1.19, the relative viability ([3]; first compound 2.53 µM) was 1.16 and the relative viability ([3]; first compound 8 µM) was 1.12. It also gave a relative viability ([4]; first compound 0.08 µM) of 1.26, a relative viability ([4]; first compound 0.253 µM) of 1.16 and a relative viability ([4]; first compound 0.8 µM) of 1.2. The relative viability ([4]; first compound 2.53 µM) was 1.19 and the relative viability ([4]; first compound 8 µM) was 1.08.

NCI-H2023 gave a relative viability ([1]; first compound 0.08 µM) of 0.4, a relative viability ([1]; first compound 0.253 µM) of 0.404 and a relative viability ([1]; first compound 0.8 µM) of 0.386. The relative viability ([1]; first compound 2.53 µM) was 0.39, the relative viability ([1]; first compound 8 µM) was 0.301 and the relative viability ([2]; first compound 0.08 µM) was 0.876. It also gave a relative viability ([2]; first compound 0.253 µM) of 0.796, a relative viability ([2]; first compound 0.8 µM) of 0.783 and a relative viability ([2]; first compound 2.53 µM) of 0.966. It also gave a relative viability ([2]; first compound 8 µM) of 0.9, a relative viability ([3]; first compound 0.08 µM) of 0.63 and a relative viability ([3]; first compound 0.253 µM) of 0.598. The relative viability ([3]; first compound 0.8 µM) was 0.718, the relative viability ([3]; first compound 2.53 µM) was 0.723 and the relative viability ([3]; first compound 8 µM) was 0.582. It also gave a relative viability ([4]; first compound 0.08 µM) of 0.579, a relative viability ([4]; first compound 0.253 µM) of 0.587 and a relative viability ([4]; first compound 0.8 µM) of 0.549. It also gave a relative viability ([4]; first compound 2.53 µM) of 0.697 and a relative viability ([4]; first compound 8 µM) of 0.584.

In the case of NCI-H2085, the relative viability ([1]; first compound 0.08 µM) is reported as 0.818, the relative viability ([1]; first compound 0.253 µM) is reported as 0.704 and the relative viability ([1]; first compound 0.8 µM) is reported as 0.87. For the same cell line, the relative viability ([1]; first compound 2.53 µM) was 0.799, the relative viability ([1]; first compound 8 µM) was 0.464 and the relative viability ([2]; first compound 0.08 µM) was 0.805. It also gave a relative viability ([2]; first compound 0.253 µM) of 0.774, a relative viability ([2]; first compound 0.8 µM) of 0.763 and a relative viability ([2]; first compound 2.53 µM) of 0.986. For the same cell line, the relative viability ([2]; first compound 8 µM) was 0.72, the relative viability ([3]; first compound 0.08 µM) was 1.1 and the relative viability ([3]; first compound 0.253 µM) was 0.92. For the same cell line, the relative viability ([3]; first compound 0.8 µM) was 1.02, the relative viability ([3]; first compound 2.53 µM) was 1.06 and the relative viability ([3]; first compound 8 µM) was 0.7. It also gave a relative viability ([4]; first compound 0.08 µM) of 0.869, a relative viability ([4]; first compound 0.253 µM) of 0.909 and a relative viability ([4]; first compound 0.8 µM) of 0.928. For the same cell line, the relative viability ([4]; first compound 2.53 µM) was 0.943 and the relative viability ([4]; first compound 8 µM) was 0.773.

With NCI-H2087 the relative viability ([1]; first compound 0.08 µM) was 0.364, the relative viability ([1]; first compound 0.253 µM) was 0.587 and the relative viability ([1]; first compound 0.8 µM) was 0.696. The relative viability ([1]; first compound 2.53 µM) was 0.566, the relative viability ([1]; first compound 8 µM) was 0.237 and the relative viability ([2]; first compound 0.08 µM) was 1.13. The relative viability ([2]; first compound 0.253 µM) was 0.88, the relative viability ([2]; first compound 0.8 µM) was 1.07 and the relative viability ([2]; first compound 2.53 µM) was 1.23. The relative viability ([2]; first compound 8 µM) was 0.843, the relative viability ([3]; first compound 0.08 µM) was 1.06 and the relative viability ([3]; first compound 0.253 µM) was 0.9. It also gave a relative viability ([3]; first compound 0.8 µM) of 0.852, a relative viability ([3]; first compound 2.53 µM) of 1.12 and a relative viability ([3]; first compound 8 µM) of 0.745. For the same cell line, the relative viability ([4]; first compound 0.08 µM) was 0.999, the relative viability ([4]; first compound 0.253 µM) was 1.1 and the relative viability ([4]; first compound 0.8 µM) was 1.06. For the same cell line, the relative viability ([4]; first compound 2.53 µM) was 1.24 and the relative viability ([4]; first compound 8 µM) was 0.763.

In the case of NCI-H2126, the relative viability ([1]; first compound 0.08 µM) is reported as 0.719, the relative viability ([1]; first compound 0.253 µM) is reported as 0.753 and the relative viability ([1]; first compound 0.8 µM) is reported as 0.699. For the same cell line, the relative viability ([1]; first compound 2.53 µM) was 0.779, the relative viability ([1]; first compound 8 µM) was 0.792 and the relative viability ([2]; first compound 0.08 µM) was 0.848. It also gave a relative viability ([2]; first compound 0.253 µM) of 0.815, a relative viability ([2]; first compound 0.8 µM) of 0.77 and a relative viability ([2]; first compound 2.53 µM) of 0.772. For the same cell line, the relative viability ([2]; first compound 8 µM) was 0.836, the relative viability ([3]; first compound 0.08 µM) was 0.712 and the relative viability ([3]; first compound 0.253 µM) was 0.729. For the same cell line, the relative viability ([3]; first compound 0.8 µM) was 0.801, the relative viability ([3]; first compound 2.53 µM) was 0.797 and the relative viability ([3]; first compound 8 µM) was 0.716. The relative viability ([4]; first compound 0.08 µM) was 0.764, the relative viability ([4]; first compound 0.253 µM) was 0.766 and the relative viability ([4]; first compound 0.8 µM) was 0.742. It also gave a relative viability ([4]; first compound 2.53 µM) of 0.816 and a relative viability ([4]; first compound 8 µM) of 0.785.

NCI-H2228 showed a relative viability ([1]; first compound 0.08 µM) of 0.567, a relative viability ([1]; first compound 0.253 µM) of 0.532 and a relative viability ([1]; first compound 0.8 µM) of 0.632. The relative viability ([1]; first compound 2.53 µM) was 0.597, the relative viability ([1]; first compound 8 µM) was 0.378 and the relative viability ([2]; first compound 0.08 µM) was 1.04. It also gave a relative viability ([2]; first compound 0.253 µM) of 0.974, a relative viability ([2]; first compound 0.8 µM) of 1.14 and a relative viability ([2]; first compound 2.53 µM) of 0.99. It also gave a relative viability ([2]; first compound 8 µM) of 0.635, a relative viability ([3]; first compound 0.08 µM) of 0.769 and a relative viability ([3]; first compound 0.253 µM) of 0.803. The relative viability ([3]; first compound 0.8 µM) was 0.672, the relative viability ([3]; first compound 2.53 µM) was 0.706 and the relative viability ([3]; first compound 8 µM) was 0.445. The relative viability ([4]; first compound 0.08 µM) was 0.75, the relative viability ([4]; first compound 0.253 µM) was 0.829 and the relative viability ([4]; first compound 0.8 µM) was 0.734. For the same cell line, the relative viability ([4]; first compound 2.53 µM) was 0.595 and the relative viability ([4]; first compound 8 µM) was 0.786.

In the case of NCI-H2347, the relative viability ([1]; first compound 0.08 µM) is reported as 0.371, the relative viability ([1]; first compound 0.253 µM) is reported as 0.425 and the relative viability ([1]; first compound 0.8 µM) is reported as 0.406. For the same cell line, the relative viability ([1]; first compound 2.53 µM) was 0.332, the relative viability ([1]; first compound 8 µM) was 0.349 and the relative viability ([2]; first compound 0.08 µM) was 0.947. The relative viability ([2]; first compound 0.253 µM) was 1.12, the relative viability ([2]; first compound 0.8 µM) was 0.965 and the relative viability ([2]; first compound 2.53 µM) was 0.931. It also gave a relative viability ([2]; first compound 8 µM) of 0.917, a relative viability ([3]; first compound 0.08 µM) of 0.921 and a relative viability ([3]; first compound 0.253 µM) of 0.958. The relative viability ([3]; first compound 0.8 µM) was 0.977, the relative viability ([3]; first compound 2.53 µM) was 0.932 and the relative viability ([3]; first compound 8 µM) was 0.804. For the same cell line, the relative viability ([4]; first compound 0.08 µM) was 0.942, the relative viability ([4]; first compound 0.253 µM) was 0.855 and the relative viability ([4]; first compound 0.8 µM) was 1.18. It also gave a relative viability ([4]; first compound 2.53 µM) of 1.02 and a relative viability ([4]; first compound 8 µM) of 0.791.

With NCI-H2405 the relative viability ([1]; first compound 0.08 µM) was 0.664, the relative viability ([1]; first compound 0.253 µM) was 0.614 and the relative viability ([1]; first compound 0.8 µM) was 0.677. For the same cell line, the relative viability ([1]; first compound 2.53 µM) was 0.624, the relative viability ([1]; first compound 8 µM) was 0.606 and the relative viability ([2]; first compound 0.08 µM) was 1.29. For the same cell line, the relative viability ([2]; first compound 0.253 µM) was 1.06, the relative viability ([2]; first compound 0.8 µM) was 1.05 and the relative viability ([2]; first compound 2.53 µM) was 1.17. The relative viability ([2]; first compound 8 µM) was 0.955, the relative viability ([3]; first compound 0.08 µM) was 0.999 and the relative viability ([3]; first compound 0.253 µM) was 1.14. For the same cell line, the relative viability ([3]; first compound 0.8 µM) was 1.1, the relative viability ([3]; first compound 2.53 µM) was 0.862 and the relative viability ([3]; first compound 8 µM) was 0.744. For the same cell line, the relative viability ([4]; first compound 0.08 µM) was 0.74, the relative viability ([4]; first compound 0.253 µM) was 0.798 and the relative viability ([4]; first compound 0.8 µM) was 0.914. It also gave a relative viability ([4]; first compound 2.53 µM) of 0.792 and a relative viability ([4]; first compound 8 µM) of 0.731.
